According to patent US20150105252A1, “SUBSTITUTED PYRAZOLES AS HERBICIDES” (E I DU PONT DE NEMOURS AND COMPANY, priority 2013, published 2015):

Experiments:
[1] = tested on: barnyardgrass; experiment: Test B flood; type: in vivo, Echinochloa crus-galli; details: 250 g ai/ha, visual rating on 0 to 100 scale (0 no effect, 100 complete control), 13 to 15 days
Summary of the method: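 Plants were grown to the 2-leaf stage and pots flooded to 3 cm above soil. Compounds were applied directly into the paddy water, with depth kept for the test. After 13–15 days in greenhouse, response was rated visually against controls on a 0 (no effect) to 100 (complete control) scale.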

[2] = tested on: wheat; experiment: Test C postemergence; type: in vivo, Triticum aestivum
Summary of the method: (§1)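 Herbicidal effect is expressed as percent visual control (0–100) judged against untreated plants 13 to 15 days after treatment in the greenhouse. Preemergence pots contained seeds in a soil–sand blend; postemergence plants, 2–18 cm tall, grew in peat-based planting medium.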

[3] = tested on: oilseed rape; experiment: Test C preemergence; type: in vivo, Brassica napus
Summary of the method: as §1

[4] = tested on: ragweed; experiment: Test C postemergence; type: in vivo, Ambrosia elation
Summary of the method: as §1

[5] = tested on: wheat; experiment: Test C preemergence; type: in vivo, Triticum aestivum
Summary of the method: as §1

[6] = tested on: ryegrass, Italian; experiment: Test C preemergence; type: in vivo, Lolium multiflorum
Summary of the method: as §1

[7] = tested on: corn; experiment: Test C postemergence; type: in vivo, Zea mays
Summary of the method: as §1

[8] = tested on: galium; experiment: Test C preemergence; type: in vivo, Galium aparine
Summary of the method: as §1

[9] = tested on: pigweed; experiment: Test C postemergence; type: in vivo, Amaranthus retroflexus
Summary of the method: as §1

[10] = tested on: chickweed; experiment: Test C postemergence; type: in vivo, Stellaria media
Summary of the method: as §1

[11] = tested on: johnsongrass; experiment: Test C postemergence; type: in vivo, Sorghum halepense
Summary of the method: as §1

[12] = tested on: pigweed; experiment: Test A preemergence; type: in vivo, Amaranthus retroflexus; details: preemergence
Summary of the method: (§2)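 Scoring was visual, on a scale where 100 means complete control and 0 means no effect, comparing treated with untreated plants around 10 days post-application. Compounds in surfactant-containing non-phytotoxic solvent were sprayed onto soil preemergence or onto one- to two-leaf seedlings (2–10 cm) postemergence.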

[13] = tested on: soybean; experiment: Test C postemergence; type: in vivo, Glycine max
Summary of the method: as §1

[14] = tested on: velvetleaf; experiment: Test A preemergence; type: in vivo, Abutilon theophrasti; details: preemergence
Summary of the method: as §2

[15] = Postemergence, 31 g ai/ha, visually evaluated after 13 to 15 days
[16] = postemergence, 62 g ai/ha, scale 0 to 100
[17] = postemergence, 125 g ai/ha, scale 0 to 100, 0 no effect, 100 complete control
[18] = Preemergence, 16 g ai/ha, scale 0 to 100
[19] = preemergence, 31 g ai/ha, visual rating, scale 0 to 100 (0 no effect, 100 complete control), 13 to 15 days
[20] = preemergence, 62 g ai/ha, 13 to 15 days, scale 0 to 100, 0 = no effect, 100 = complete control
[21] = preemergence, 125 g ai/ha, scale 0 to 100, 0 is no effect, 100 is complete control
[22] = 125 g ai/ha, visual injury, 0 to 100 scale, approx. 10 days
[23] = 500 g ai/ha, visual injury after approx. 10 days, 0 to 100 scale (0 no effect, 100 complete control)

CCc1cc(C(=O)NOC(C)C)nn1Cc1ccnc(C(F)(F)F)c1 [Compound 101]
Plant response rating, Barnyardgrass [1]: 0
Plant response rating (scale of 0 to 100), Wheat ([2]; Postemergence, 16 g ai/ha): 0
Plant response rating (scale of 0 to 100 where 0 is no effect and 100 is complete control), Wheat [2, 15]: 0
Wheat plant response rating [2, 16]: 5
Plant response rating, Wheat [2, 17]: 5
Plant response rating, Oilseed Rape [3, 18]: 75
Oilseed Rape plant response rating [3, 19]: 90
Plant response rating, Oilseed Rape [3, 20]: 98
Oilseed Rape plant response rating [3, 21]: 100
Plant response rating (scale of 0 to 100), Ragweed ([4]; Postemergence, 16 g ai/ha): 15
Plant response rating (scale of 0 to 100 where 0 is no effect and 100 is complete control), Ragweed [4, 15]: 15
Ragweed plant response rating [4, 16]: 20
Plant response rating, Ragweed [4, 17]: 75
Plant response rating, Wheat [5, 18]: 0
Wheat plant response rating [5, 19]: 5
Plant response rating, Wheat [5, 20]: 85
Wheat plant response rating [5, 21]: 85
Plant response rating, Ryegrass, Italian [6, 18]: 0
Ryegrass, Italian plant response rating [6, 19]: 30
Plant response rating, Ryegrass, Italian [6, 20]: 60
Ryegrass, Italian plant response rating [6, 21]: 100
Plant response rating (scale of 0 to 100), Corn ([7]; Postemergence, 16 g ai/ha): 5
Plant response rating (scale of 0 to 100 where 0 is no effect and 100 is complete control), Corn [7, 15]: 10
Corn plant response rating [7, 16]: 10
Plant response rating, Corn [7, 17]: 60
Plant response rating, Galium [8, 18]: 80
Galium plant response rating [8, 19]: 80
Plant response rating, Galium [8, 20]: 80
Galium plant response rating [8, 21]: 80
Plant response rating (scale of 0 to 100), Pigweed ([9]; Postemergence, 16 g ai/ha): 20
Plant response rating (scale of 0 to 100 where 0 is no effect and 100 is complete control), Pigweed [9, 15]: 35
Pigweed plant response rating [9, 16]: 45
Plant response rating, Pigweed [9, 17]: 75
Plant response rating (scale of 0 to 100), Chickweed ([10]; Postemergence, 16 g ai/ha): 45
Plant response rating (scale of 0 to 100 where 0 is no effect and 100 is complete control), Chickweed [10, 15]: 50
Chickweed plant response rating [10, 16]: 50
Plant response rating, Chickweed [10, 17]: 50
Plant response rating (scale of 0 to 100), Johnsongrass ([11]; Postemergence, 16 g ai/ha): 0
Plant response rating (scale of 0 to 100 where 0 is no effect and 100 is complete control), Johnsongrass [11, 15]: 5
Johnsongrass plant response rating [11, 16]: 5
Plant response rating, Johnsongrass [11, 17]: 5
Pigweed plant response rating [12, 22]: 100
Pigweed plant response rating [12, 23]: 100
Plant response rating (scale of 0 to 100), Soybean ([13]; Postemergence, 16 g ai/ha): 15
Plant response rating (scale of 0 to 100 where 0 is no effect and 100 is complete control), Soybean [13, 15]: 20
Soybean plant response rating [13, 16]: 25
Plant response rating, Soybean [13, 17]: 40
Velvetleaf plant response rating [14, 22]: 40
Velvetleaf plant response rating [14, 23]: 100
